In ChEMBL document CHEMBL4842359, “1,3-Diarylpyrazolyl-acylsulfonamides as Potent Anti-tuberculosis Agents Targeting Cell Wall Biosynthesis in Mycobacterium tuberculosis” (J Med Chem, 2021):
Converted amounts (≈) assume the structure as drawn.

Legend:
[1] = Thermodynamic solubility of compound at pH 7.4 aqueous phosphate buffer
[2] = test system: Mycobacterium tuberculosis; assay: microbe, parasite or virus in culture; conditions: H37Rv, 336 h
Description: Antimycobacterial activity against Mycobacterium tuberculosis H37Rv in presence of middlebrook 7H9/glucose/BSA/tyloxapol medium measured after 14 days by bioluminescence reporter assay

[3] = Plasma protein binding in human assessed as unbound fraction at 5 uM by LC-MS/MS analysis; format: ADME, cell-free; conditions: 5 µM
[4] = Metabolic stability in mouse liver microsomes assessed as compound remaining at 1 uM by LC-MS/MS analysis; format: ADME, Microsome; conditions: microsomes, 1 µM
[5] = Terminal half life in iv dosed C57BL/6 mouse measured up to 24 hrs by LC-MS/MS analysis; format: ADME, organism-based; conditions: mouse, in vivo, 24 h
[6] = Lipophilicity, logD of the compound at pH 7.4 by HPLC-DAD analysis; format: physicochemical; conditions: buffer
[7] = Metabolic stability in rat liver microsomes assessed as compound remaining at 1 uM by LC-MS/MS analysis; format: ADME, Microsome; conditions: microsomes, 1 µM
[8] = Metabolic stability in human liver microsomes assessed as compound remaining at 1 uM by LC-MS/MS analysis; format: ADME, Microsome; conditions: microsomes, 1 µM
[9] = AUC (0 to t) in iv dosed C57BL/6 mouse measured up to 24 hrs by LC-MS/MS analysis; format: ADME, organism-based; design: time <=24; conditions: in vivo
[10] = Unbound clearance in iv dosed C57BL/6 mouse measured up to 24 hrs by LC-MS/MS analysis; format: ADME, organism-based; conditions: in vivo
[11] = Volume of distribution in iv dosed C57BL/6 mouse measured up to 24 hrs by LC-MS/MS analysis; format: ADME, organism-based; conditions: C57BL/6, mouse, in vivo, read-out: Vd

Row | SMILES | solubility thermodynamic [1] [µM] | MIC [2] [µM] | also measured
1 | CS(=O)(=O)NC(=O)NCc1cn(-c2ccc(C(F)(F)F)nc2)nc1-c1ccncc1 | 195 (≈ 85.9 µg/mL) |  | 
2 | O=c1[nH]nc(CCc2cn(-c3ccc(Br)cc3)nc2-c2ccc(Cl)cc2)o1 | < 5 | 19 (≈ 8.47 µg/mL) | 
3 | CNC(=O)CCc1cn(-c2ccc(Br)cc2)nc1-c1ccc(Cl)cc1 | < 5 | > 50 | 
4 | CS(=O)(=O)NC(=O)CCc1cn(-c2ccc(Cl)cc2)nc1-c1ccccc1Cl | 90 (≈ 39.5 µg/mL) | > 50 | 
5 | CS(=O)(=O)NC(=O)CCc1cn(-c2ccc(Br)cc2)nc1-c1ccccc1 | 200 (≈ 89.7 µg/mL) | 2.3 (≈ 1.03 µg/mL) | 
6 | CS(=O)(=O)NC(=O)/C=C/c1cn(-c2ccc(Cl)cc2)nc1-c1ccncc1 | 90 (≈ 36.3 µg/mL) | 4.7 (≈ 1.89 µg/mL) | Fu [3]: 0.015 fraction; Stabilty [4]: 85%; beta t1/2 [5]: 1.1 h; logD [6]: 0.98; Stabilty [7]: 82%; Stabilty [8]: 88%; AUCt [9]: 8.7 µmol·min/L; CL free [10]: > 1200 L/h/kg
7 | O=C(CCc1cn(-c2ccc(Br)cc2)nc1-c1ccc(Cl)cc1)NS(=O)(=O)C1CC1 | 5 (≈ 2.54 µg/mL) | > 50 | 
8 | O=C1NC(=O)C(Cc2cn(-c3ccc(Cl)cc3)nc2-c2ccc(Cl)cc2)C(=O)N1 |  | > 50 | 
9 | CS(=O)(=O)NC(=O)CCc1cn(-c2ccc(Br)cc2)nc1Cc1ccccc1 | 200 (≈ 92.5 µg/mL) | > 50 | 
10 | Clc1ccc(-c2nn(-c3ccc(Br)cc3)cc2CCc2nnn[nH]2)cc1 | 150 (≈ 64.5 µg/mL) | > 50 | 
11 | CS(=O)(=O)NC(=O)NCc1cc(-c2ccc(Br)cc2)oc1-c1ccncc1 | 25 (≈ 11.3 µg/mL) |  | Stabilty [4]: 85%; logD [6]: 0.36; Stabilty [7]: 87%; Stabilty [8]: 98%; AUCt [9]: 20 µmol·min/L; CL free [10]: > 1200 L/h/kg
12 | CS(=O)(=O)NC(=O)CCc1cn(-c2ccc(Br)cc2)nc1C1CCNCC1 | 196 (≈ 89.3 µg/mL) | > 50 | 
13 | CS(=O)(=O)NC(=O)C1CC1c1cn(-c2ccc(Cl)cc2)nc1-c1ccncc1 (stereo unspecified) | 200 (≈ 83.4 µg/mL) | 19 (≈ 7.92 µg/mL) | Fu [3]: 0.01 fraction; Stabilty [4]: 96%; beta t1/2 [5]: 0.9 h; logD [6]: 1.06; Stabilty [7]: 92%; Stabilty [8]: > 99%; AUCt [9]: 21 µmol·min/L; CL free [10]: > 1200 L/h/kg
14 | CS(=O)(=O)NC(=O)NCc1cn(-c2ccc(Cl)cc2)nc1-c1ccc(Cl)cc1 | < 5 | 3.13 (≈ 1.38 µg/mL) | 
15 | CN(C(=O)CCc1cn(-c2ccc(Br)cc2)nc1-c1ccc(Cl)cc1)S(C)(=O)=O | < 5 | > 50 | 
16 | O=c1[nH]c(CCc2cn(-c3ccc(Br)cc3)nc2-c2ccc(Cl)cc2)no1 | < 5 | 50 (≈ 22.3 µg/mL) | 
17 | CC(CC(=O)NS(C)(=O)=O)c1cn(-c2ccc(Cl)cc2)nc1-c1ccncc1 (stereo unspecified) | 170 (≈ 71.2 µg/mL) | 50 (≈ 20.9 µg/mL) | 
18 | O=C(O)CCc1cn(-c2ccc(Br)cc2)nc1-c1ccc(Cl)cc1 | 155 (≈ 62.9 µg/mL) | > 50 | 
19 | CCS(=O)(=O)NC(=O)CCc1cn(-c2ccc(Br)cc2)nc1-c1ccc(Cl)cc1 | 10 (≈ 4.97 µg/mL) |  | 
20 | CS(=O)(=O)NC(=O)CCc1cn(C2CCCCC2)nc1-c1ccc(Cl)cc1 | 200 (≈ 82 µg/mL) | > 50 | 
21 | CS(=O)(=O)NC(=O)OCc1cn(-c2ccc(Cl)cc2)nc1-c1ccncc1 |  | 123 (≈ 50 µg/mL) | Fu [3]: 0.03 fraction; Vd [11]: 0.1 L/kg; Stabilty [4]: 98%; beta t1/2 [5]: 5.8 h; logD [6]: 2.73; Stabilty [7]: 97%; Stabilty [8]: 97%; AUCt [9]: 22 µmol·min/L; CL free [10]: > 1200 L/h/kg
22 | CS(=O)(=O)NC(=O)CCc1sc(-c2ccc(Cl)cc2)nc1-c1ccc(Cl)cc1 | 90 (≈ 41 µg/mL) | 19 (≈ 8.65 µg/mL) | 
23 | CS(=O)(=O)NC(=O)CCc1cn(-c2ccc(C(F)(F)F)cc2)nc1-c1ccc(Cl)cc1 | 50 (≈ 23.6 µg/mL) | 3.1 (≈ 1.46 µg/mL) | 
24 | C[S+]([O-])c1ccc(-n2cc(CCC(=O)NS(C)(=O)=O)c(-c3ccc(Cl)cc3)n2)cc1 (stereo unspecified) | 200 (≈ 93.2 µg/mL) | ≥ 50 | 
25 | CS(=O)(=O)NC(=O)CCCc1cn(-c2ccc(Br)cc2)nc1-c1ccc(Cl)cc1 | 135 (≈ 67.1 µg/mL) | 37 (≈ 18.4 µg/mL) | 

Row | SMILES | solubility thermodynamic [1] [µM] | MIC [2] [µM] | also measured
26 | CS(=O)(=O)NC(=O)CCc1cn(-c2ccc(F)cc2)nc1-c1ccc(Cl)cc1 | 25 (≈ 10.5 µg/mL) | 37 (≈ 15.6 µg/mL) | 
27 | CC(=O)NS(=O)(=O)CCc1cn(-c2ccc(Br)cc2)nc1-c1ccc(Cl)cc1 | 165 (≈ 79.7 µg/mL) | > 50 | 
28 | CS(=O)(=O)NC(=O)CCc1cn(-c2ccc(Br)cc2)nc1-c1ccc([N+](=O)[O-])cc1 | < 5 |  | 
29 | CS(=O)(=O)NC(=O)CCc1cn(-c2ccccc2Br)nc1-c1ccc(Cl)cc1 | 165 (≈ 79.7 µg/mL) | > 50 | 
30 | CS(=O)(=O)NCCCc1cn(-c2ccc(Br)cc2)nc1-c1ccc(Cl)cc1 | < 5 | > 50 | 
31 | CS(=O)(=O)NC(=O)CCc1cn(-c2ccc(Br)cc2)nc1-c1cnccn1 | 196 (≈ 88.3 µg/mL) | 20 (≈ 9.01 µg/mL) | 
32 | CS(=O)(=O)NC(=O)CCc1oc(-c2ccc(Cl)cc2)nc1-c1ccc(Cl)cc1 | 200 (≈ 87.9 µg/mL) | 37 (≈ 16.3 µg/mL) | 
33 | CS(=O)(=O)NC(=O)CCc1cn(-c2ccc(Br)cc2)nc1C1CCN(C=O)CC1 | 200 (≈ 96.7 µg/mL) | 50 (≈ 24.2 µg/mL) | 
34 | CS(=O)(=O)NC(=O)CCc1nn(-c2ccc(Br)cc2)cc1-c1ccc(Cl)cc1 | 135 (≈ 65.2 µg/mL) | 37 (≈ 17.9 µg/mL) | 
35 | CS(=O)(=O)NC(=O)CCc1cc(-c2ccc(Cl)cc2)nn1-c1ccc(F)cc1 | 195 (≈ 82.3 µg/mL) | 5.5 (≈ 2.32 µg/mL) | 
36 | CS(=O)(=O)NC(=O)CCc1cn(-c2ccc(Br)cc2)nc1-c1cccc(Cl)c1 | 165 (≈ 79.7 µg/mL) |  | 
37 | CS(=O)(=O)NC(=O)CCc1cn(-c2cccc(Br)c2)nc1-c1ccc(Cl)cc1 | < 5 | > 50 | 
38 | CC(Cc1cn(-c2ccc(Cl)cc2)nc1-c1ccncc1)C(=O)NS(C)(=O)=O (stereo unspecified) | 190 (≈ 79.6 µg/mL) | > 50 | 
39 | CS(=O)(=O)NC(=O)CCc1cn(-c2ccc(Br)cc2)nc1-c1ccc(N)cc1 | 160 (≈ 74.1 µg/mL) | 25 (≈ 11.6 µg/mL) | 
40 | CS(=O)(=O)NC(=O)CCc1cc(-c2ccc(Br)cc2)n(-c2ccc(Cl)cc2)n1 | 170 (≈ 82.1 µg/mL) | > 50 | 
41 | CS(=O)(=O)NC(=O)Cc1cn(-c2ccc(Br)cc2)nc1-c1ccc(Cl)cc1 |  | > 50 | 
42 | CS(=O)(=O)NC(=O)/C=C/c1cn(-c2ccc(Br)cc2)nc1-c1ccncc1 | 115 (≈ 51.4 µg/mL) | 12 (≈ 5.37 µg/mL) | 
43 | CS(=O)(=O)NC(=O)CCc1cn(-c2ccncc2)nc1-c1ccc(Cl)cc1 | 190 (≈ 76.9 µg/mL) | > 50 | 
44 | CS(=O)(=O)NC(=O)CCc1cn(-c2ccc(C#N)cc2)nc1-c1ccc(Cl)cc1 | 75 (≈ 32.2 µg/mL) | 25 (≈ 10.7 µg/mL) | 
45 | CS(=O)(=O)NC(=O)C1CC1c1cn(-c2ccc(Br)cc2)nc1-c1ccncc1 (stereo unspecified) | 155 (≈ 71.5 µg/mL) | 12.5 (≈ 5.77 µg/mL) | 
46 | CS(=O)(=O)NC(=O)CCc1cn(-c2ccccc2)nc1-c1ccc(Cl)cc1 | 200 (≈ 80.8 µg/mL) | > 50 | 
47 | CS(=O)(=O)NC1=NOC(c2cn(-c3ccc(Cl)cc3)nc2-c2ccc(Cl)cc2)C1 (stereo unspecified) | 175 (≈ 79 µg/mL) | 25 (≈ 11.3 µg/mL) | 
48 | CS(=O)(=O)NC(=O)CCn1nc(-c2ccc(Cl)cc2)cc1-c1ccc(Cl)cc1 | 200 (≈ 87.7 µg/mL) | > 50 | 
49 | CS(=O)(=O)NC(=O)CCc1cn(-c2ccc(Br)cc2)nc1C1CCCCC1 | 60 (≈ 27.3 µg/mL) | 9.4 (≈ 4.27 µg/mL) | 
